In US12539289B2, “Phorbol ester compositions and methods of use for treating or reducing the duration of cytopenia” (BIOSUCCESS BIOTECH CO., LTD., priority 2014, dated 2026):
Several values for one entry are separate records, joined by “and”; a condition that tells them apart may be missing. Equal entries are not always repeated.

Key:
[1] = tested on: bone marrow stromal cells (BMSCs) from healthy persons; experiment: BMSC proliferation or inhibition, CCK8 method, healthy persons; format: cell-based, human; settings: BMSCs of the healthy human and the AML patient after chemotherapy
Protocol: (§1) To explore the effect of TPA alone or combined rhG-CSF on bone marrow hematopoietic cells proliferation and colony formation ability which from patients of acute myeloid leukemia (AML) in the period of bone marrow suppression in vitro and to observe the effect of TPA on bone marrow stromal cells(BMSCs) proliferation or inhibition from patients of AML in the period of myelosuppression and the healthy persons.
(§2) • 1) Human bone marrow cells from the same AML patient after chemotherapy were cultured by methyl cellulose semi-solid culture medium. Groups: Blank, TPA (10 ng/ml), G-CSF (50 ng/ml), TPA (10 ng/ml)+GCSF (50 ng/ml). The experiments were repeated for 4 times. • 2) The stroma cells of bone marrow from the healthy human and the AML patient after chemotherapy were cultured by methyl cellulose semi-solid culture medium. Different TPA concentrations were added. Groups: Blank, TPA (0.1 ng/ml), TPA (1.0 ng/ml), TPA (5 ng/ml), TPA (10 ng/ml), TPA (20 ng/ml), TPA (30 ng/ml). • 3) Cultivation of BMSCs from healthy persons and patients of AML in the bone marrow suppression phase in vitro, added to TPA of different concentrations, 0.1 ng/ml, 1.0 ng/ml, 5 ng/ml, 10 ng/ml, 20 ng/ml, 30 ng/ml, and set up a control to detect cell proliferation or inhibition with CCK8 method. Results and Conclusion: • 1. […]

[2] = tested on: bone marrow stromal cells (BMSCs) from patients of AML in the bone marrow suppression phase; experiment: BMSC proliferation or inhibition, CCK8 method, AML patients; format: cell-based, human
Protocol: as §1, §2

[3] = tested on: Human bone marrow cells from the same AML patient after chemotherapy; experiment: Colony formation of bone marrow hematopoietic cells in methyl cellulose semi-solid culture medium; format: cell-based
Protocol: as §1
• 1) Human bone marrow cells from the same AML patient after chemotherapy were cultured by methyl cellulose semi-solid culture medium. Groups: Blank, TPA (10 ng/ml), G-CSF (50 ng/ml), TPA (10 ng/ml)+GCSF (50 ng/ml). The experiments were repeated for 4 times. • 2) The stroma cells of bone marrow from the healthy human and the AML patient after chemotherapy were cultured by methyl cellulose semi-solid culture medium. Different TPA concentrations were added. Groups: Blank, TPA (0.1 ng/ml), TPA (1.0 ng/ml), TPA (5 ng/ml), TPA (10 ng/ml), TPA (20 ng/ml), TPA (30 ng/ml). • 3) Cultivation of BMSCs from healthy persons and patients of AML in the bone marrow suppression phase in vitro, added to TPA of different concentrations, 0.1 ng/ml, 1.0 ng/ml, 5 ng/ml, 10 ng/ml, 20 ng/ml, 30 ng/ml, and set up a control to detect cell proliferation or inhibition with CCK8 method. Results and Conclusion: • 1. Compared the clones of four groups in incomplete medium, in the control group a small cell clusters can be seen for 24-72 hours, but the cells were dead as time prolong. Cultivated 14 days, control group have no clones formation, CFU-GM are dominated for G-CSF group, TPA alone and combination with G-CSF group have myeloid colony formation, while BFU-E and CFU-GEMM. […] Compared the clones of different concentration of TPA stimulation in incomplete medium, the total clones of 5 ng/ml, 10 ng/ml, 20 ng/ml group are higher than other groups, including 10 ng/ml in the highest, there are statistical significance (both P<0.05). While decreasing or increasing TPA concentration can not improve the colony number. The better concentration of TPA to stimulate the colony formation is 5˜20 ng/ml. […] Compared the clones of different concentration of TPA and G-CSF (50 ng/ml) stimulation in incomplete medium. Combination with G-CSF the better concentration of TPA is 1˜10 ng/ml (both P<0.05). Combination with G-CSF the best concentration of TPA is 5 ng/ml and 1 ng/ml. for CFU-GM and CFU-GEMM. The main clone types are myeloid colones, CFU-GM, also have CFU-GEMM and fewer BFU-E. • 4. […] While TPA group and G-CSF group the number of clones of TPA group and G-CSF group have no statistical significance (P=0.577). • 5. […] Meanwhile, TPA promote bone marroe stromal cells from the AML patients proliferation of concentration 5˜30 ng/ml (cell number 2×10^5/ml). 5 ng/ml of TPA is the best concentration of promoting proliferation, and G-CSF had no effect on the growth of BMSCs from healthy persons or AML patients.

## CCCCCCCCCCCCCC(=O)O[C@@H]1[C@@H](C)[C@@]2(O)[C@@H](C=C(CO)C[C@]3(O)C(=O)C(C)=C[C@@H]23)[C@@H]2C(C)(C)[C@]12OC(C)=O [TPA, 12-O-tetradecanoylphorbol-13-acetate]
[1]
  optimal concentrations for growth of stroma cells of bone marrow (BMSCs): 5 ng/mL and 10 ng/mL
[2]
  best concentration of promoting proliferation of BMSCs: 5 ng/mL
[3]; TPA alone, incomplete medium
  best concentration for hematopoietic cell clone formation (highest total clones): 10 ng/mL
[3]; bone marrow of AML patients in the period of bone marrow suppression, in vitro
  colony types whose formation is promoted (CFU-GM, CFU-GEMM, BFU-E): promoted the formation of CFU-GM, CFU-GEMM, and BFU-E
[3]; incomplete medium, cultivated 14 days, TPA 10 ng/ml, G-CSF 50 ng/ml
  total number of clones: higher than G-CSF group
